In patent US20190350995A1, “THERAPEUTIC COMPOSITION DERIVED FROM ANTHOSTEMA SENEGALENSE” (LABORATOIRE MICHEL IDERNE, priority 2016, published 2019):
≈ marks a conversion by molar mass, not a printed value. Like-named read-outs stand apart in the source and are kept apart here.

Assays:
HIV type 1 = assay: In vitro anti-viral replication test (method of E De Clercq, MTT) against HIV type 1 in infected MT-4 cells; assay type: cell-based, HIV-1; settings: for HIV-1 SI: selectivity index, ratio CC50/EC50; for biological (inhibitory) activity against HIV-1, in words: in vitro, "significant" = CC50≥45 μg/mL and selectivity index ≥50
Method: (§1) The anti-viral replication efficiency of the molecules of the chemical composition of the invention was tested in vitro against the replication of the viruses HIV type 1 (strain MO and HIV type 2 (strain ROD) in the infected MT-4 cells.
(§2) More specifically, the antiretroviral activity of the molecules was tested by effectively carrying out the method of E De Clercq in a microplate.
(§3) This method consists of producing a cell culture of MT-4 in a microplate, containing as cell culture medium: the medium developed by the Roswell Park Memorial Institute (referred to as “RPMI 1640”), comprising of foetal calf serum, glutamine, sodium bicarbonate, and gentamicin as bacterial inhibitor.
(§4) The molecules of the chemical composition of the invention are added at different concentrations into the cell growth medium. Each concentration of molecules to be tested is prepared in triplicate. The MT4 cells placed in the presence of the molecules to be tested are referred to as “treated cells”.
(§5) In each cell growth well, a defined amount of HIV-1 or HIV-2 is added in order to obtain the same concentration of virus in each well.
(§6) The cells placed in the presence of the HIV are referred to as “infected cells”.
(§7) Five days after the start of the process of infecting the MT4 cells with HIV-1 or HIV-2 in the presence of the molecules to be tested at different concentrations, a count is taken of the number of living cells by means of an MTT (tetrazolium salt) colorimetric assay by measuring the optical density at 540 nm.
(§8) As negative controls, use is made of cells without HIV 1 or HIV 2, referred to as “non-infected cells”, as well as of cells without the molecules to be tested referred to as “untreated cells”.
(§9) Thus, succinctly stated, the method of E De Clercq provides the means to obtain a density measurement at 540 nm for: • the cells infected with HIV-1 or HIV-2, treated with the molecules of the composition of the invention; • the cells not infected with HIV, treated with the molecules of the composition of the invention; • the cells infected with HIV-1 or HIV-2, not treated with the molecules of the composition of the invention; • the cells not infected with HIV, not treated with the molecules of the composition of the invention.
(§10) In particular, the effectiveness of the molecules of the composition of the invention was tested: • by measurement and calculation of the (median) 50% inhibitory concentration (IC50); • by measurement and calculation of the 50% cytotoxic concentration (CC50); • by measurement and calculation of the 50% effective concentration dose (EC50); and • by measurement and calculation of the selectivity index (SI), of the fractions containing the said molecules in the presence of the two strains of HIV.
(§11) The IC50 is the concentration of the molecule that makes it possible to decrease by 50% the viral proliferation of the negative control in vitro for a given time period, that is to say of the HIV without substance, only in its growth culture medium.
(§12) The EC50 is calculated using the following formula:
[(ODT)HIV^+]−[(ODC)HIV^+]/[(ODT)HIV^−]−[(ODC)HIV^−]×100 […]

HIV type 2 (strain ROD) = assay: In vitro anti-viral replication test (method of E De Clercq, MTT) against HIV type 2 (strain ROD) in infected MT-4 cells; assay type: cell-based, HIV-2; settings: for HIV-2 SI: selectivity index, ratio CC50/EC50; for biological (inhibitory) activity against HIV-2, in words: in vitro, "significant" = CC50≥45 μg/mL and selectivity index ≥50
Method: as §1, §2, §3
The molecules of the chemical composition of the invention are added at different concentrations into the cell growth medium. […] The MT4 cells placed in the presence of the molecules to be tested are referred to as “treated cells”.
as §5, §6, §7, §8, §9, §10, §11, §12
[(ODT)HIV^+]−[(ODC)HIV^+]/[(ODT)HIV^−]−[(ODC)HIV^−]×100
Where: • (ODT)HIV^+ represents the optical density measurement at 540 nm, 5 days after infection, for the cells infected with HIV and treated with the composition of the invention, that is to say in the presence of molecules of the composition of the invention; • (ODC) HIV^+ represents the optical density measurement at 540 nm, 5 days after infection, for the cells infected with HIV in the absence of the molecules of the composition of the invention; • (ODT) HIV^− represents the optical density measurement at 540 nm, 5 days after infection, for the cells not infected with HIV and treated with the composition of the invention, that is to say in the presence of the molecules of the composition of the invention; i(ODC) HIV^− represents the optical density measurement at 540 nm, 5 days after infection, for the cells not infected with HIV in the absence of the molecules of the composition of the invention.
The selectivity index represents the ratio CC50/EC50. […]

MT-4 cells = assay: 50% cytotoxic concentration in MT-4 cells (MTT); assay type: cell-based; settings: for HIV-1 CC 50: HIV-1, average over duplicates; for HIV-2 CC 50: HIV-2, average over duplicates; for CC50: Homo sapiens
Method: as §3, §4, §7, §8, §9, §10
The CC50 is the concentration of active molecules that makes it possible to decrease by 50% the […]. In other words, it is the concentration of active molecules that makes it possible to decrease by 50% the viability of cells.

HIV-1 or HIV-2 = assay: In vitro anti-HIV test of fractions and isolated compounds, virus type not separated in the statement; assay type: cell-based
Method: The anti-HIV activity was tested in vitro according to the method of Clerq E on each of the abovementioned fractions AsC4.1, AsC4.2, AsC4.3, AsC4.4, AsC4.5, AsC4.6, AsC4.7 and AsC4.8.
More than ten different compounds were obtained for all of the different mobile phases used. Each compound was individually tested against HIV-1 and HIV-2 according to the in vitro method mentioned above.

[1] = infected MT-4 cells, 5 days after infection, MTT, average over duplicates
[2] = "significant" = CC50≥45 μg/mL and selectivity index ≥50

Nc1ccn([C@H]2CC[C@@H](CO)O2)c(=O)n1 [Dideoxycitidine, dideoxycitidine]
HIV-1 IC 50 (HIV type 1; [1]): 0.16 µg/mL | HIV-1 SI (HIV type 1): >20 | HIV-2 IC 50 (HIV type 2 (strain ROD); [1]): 0.19 µg/mL | HIV-2 SI (HIV type 2 (strain ROD)): >20 | HIV-1 CC 50 (MT-4 cells): 0.12 µg/mL | HIV-2 CC 50 (MT-4 cells): 0.11 µg/mL

O=c1[nH]cnc2c1ncn2[C@H]1CC[C@@H](CO)O1 [Dideoxyinosine, dideoxyinosine]
HIV-1 IC 50 (HIV type 1; [1]): 2.09 µg/mL | HIV-1 SI (HIV type 1): >50 | HIV-2 IC 50 (HIV type 2 (strain ROD); [1]): 3.78 µg/mL | HIV-2 SI (HIV type 2 (strain ROD)): >50 | HIV-1 CC 50 (MT-4 cells): 0.68 µg/mL | HIV-2 CC 50 (MT-4 cells): 1.22 µg/mL

Cc1ccnc2c1NC(=O)c1cccnc1N2C1CC1 [Nevirapine, nevirapine]
IC50 (HIV type 1; Human immunodeficiency virus 1, MT4, 120 h, infected MT-4 cells, 5 days after infection, MTT, average over duplicates, read-out: HIV-1 IC 50): 0.05 µg/mL (≈ 0.188 µM) | HIV-1 SI (HIV type 1): >4 | IC50 (HIV type 2 (strain ROD); Human immunodeficiency virus 2, MT4, 120 h, infected MT-4 cells, 5 days after infection, MTT, average over duplicates, read-out: HIV-2 IC 50): > 4 µg/mL | HIV-2 SI (HIV type 2 (strain ROD)): <1 | CC50 (MT-4 cells; MT4, HIV-1, average over duplicates, read-out: HIV-1 CC 50): 0.011 µg/mL (≈ 0.0413 µM) | CC50 (MT-4 cells; MT4, HIV-2, average over duplicates, read-out: HIV-2 CC 50): > 4 µg/mL

CC(=O)OC1CCC2(C)C3CCC4C(=CC(=O)C5C(C)(C)CCCC45C)C3(C)CCC2C1(C)C (centres unmarked) [molecule A]
biological activity against HIV (HIV-1 or HIV-2), in words (HIV-1 or HIV-2; [2]): significant biological activity | biological activity against HIV (HIV-1 or HIV-2), in words (HIV-1 or HIV-2; "significant" = CC50≥45 μg/mL and selectivity index ≥50, listed as AsC4.5.1.1): “significant” biological activity | biological (inhibitory) activity against HIV-1, in words (HIV type 1): at least two times greater | biological (inhibitory) activity against HIV-2, in words (HIV type 2 (strain ROD)): at least two times greater

CC1(C)CC[C@]2(C(=O)O)CC=C3[C@]4(C)CCC5C(C)(C)[C@@H](OC(=O)c6ccccc6)[C@H](O)C[C@]5(C)C4CC[C@@]3(C)C2C1 (some centres unmarked) [molecule B]
biological activity against HIV (HIV-1 or HIV-2), in words (HIV-1 or HIV-2; [2]): significant biological activity | biological activity against HIV (HIV-1 or HIV-2), in words (HIV-1 or HIV-2; "significant" = CC50≥45 μg/mL and selectivity index ≥50, listed as AsC4.5.7.2): “significant” biological activity | biological (inhibitory) activity against HIV-1, in words (HIV type 1): at least two times greater | biological (inhibitory) activity against HIV-2, in words (HIV type 2 (strain ROD)): at least two times greater
